Assay results: PMC4445002, “Efficient inhibition of tumor angiogenesis and growth by a synthetic peptide blocking S100A4-methionine aminopeptidase 2 interaction” (Molecular Therapy. Methods & Clinical Development, 2015)

How the values were obtained:
ERK1/2 = tested on: ERK1/2; parameters: method as in PMID 19716858; conditions: cited from earlier work
MetAP2 [1] = conditions: cited from earlier work
MetAP2 [2] = tested on: MetAP2; parameters: method as in PMID 16790550, PMID 22229417; conditions: cited from earlier work
S100A4 [3] = assay: FRET acceptor-photobleaching analysis in live HeLa cells; type: binding; conditions: ECFP fusion cotransfected with EYFP-S100A4, acceptor photobleaching, n = 8–11, **P < 0.01, ***P < 0.001
S100A4 [4] = assay: Surface plasmon resonance binding to GST-S100A4; conditions: Biacore 3000, captured GST-S100A4, SBD 1 mmol/l, HBS-P pH 7.4, with or without 1 mmol/l CaCl2, 25 °C, duplicated experiment
Excerpt: The binding of the SBD peptide to S100A4 was examined by Surface plasmon resonance (SPR) with a Biacore 3000 biosensor and GST Capture kit (GE Healthcare, Little Chalfont, UK) according to the manufacturer’s instructions. Goat anti-GST antibody was immobilized on two flow cells of the sensor chip (CM-5) using a standard amine coupling procedure, and then recombinant GST-S100A4 or GST as a negative control was captured. The SBD peptide (1 mmol/l) in HBS-P running buffer (10 mmol/l Hepes, pH 7.4, 150 mmol/l NaCl, 0.005% P20) in the presence or absence of 1 mmol/l CaCl2 was injected over two flow cells of the chip at a flow rate of 10 ml/minute at 25 °C for 5 minutes. The response from the control surface was subtracted, and the data plotted as Resonance Units (RU).

[5] = tested on: S100A4-MetAP2 interaction; assay: In vitro GST pull-down binding assay S100A4-MetAP2

## CO[C@@H]1[C@H](OC(=O)/C=C/C=C/C=C/C=C/C(=O)O)CC[C@]2(CO2)[C@H]1[C@@]1(C)O[C@@H]1CC=C(C)C [Fumagillin, fumagillin]
ERK1/2
  effect on ERK1/2 activity and cell growth: inhibition of the activity of ERK1/2 and cell growth
MetAP2 [1]
  effect on MetAP2 auto-proteolytic activity: inhibits MetAP2’s auto-proteolytic activity
  effect on MetAP2 turnover rate: decreases its turnover rate
MetAP2 [2]
  antiangiogenic activity: potent antiangiogenic agents

## CO[C@@H]1[C@H](OC(=O)NC(=O)CCl)CC[C@]2(CO2)[C@H]1[C@@]1(C)O[C@@H]1CC=C(C)C [TNP-470]
MetAP2 [2]
  antiangiogenic activity: potent antiangiogenic agents

## ECFP-CBD: CBD sequence subcloned into pECFP-C1, expressed in HeLa cells (TMIEICEKLEDCSRKLIKENGLNAGLAFPTGCSLNNCA; left off: ECFP, end not stated, kept)
S100A4 [3]
  FRET efficiency with EYFP-S100A4 vs negative controls: but not for ECFP-CBD/EYFP-S100A4 (orange bars), were significantly higher than those in respective negative controls

## ECFP-NBD: NBD sequence subcloned into pECFP-C1, expressed in HeLa cells (REAAEAHRQVRKYVMSWIKPGMTMIEICEKLEDCSRKLI; left off: ECFP, end not stated, kept)
S100A4 [3]
  FRET efficiency with EYFP-S100A4 vs negative controls: significantly higher than those in respective negative controls

## ECFP-SBD: SBD sequence subcloned into pECFP-C1, expressed in HeLa cells (REAAEAHRQVRKYVMSWIKPGMTMIEICEKLEDCSRKLIKENGLNAGLAFPTGCSLNNCA; left off: ECFP, end not stated, kept)
S100A4 [3]
  FRET efficiency with EYFP-S100A4 vs negative controls: significantly higher than those in respective negative controls

## SBD: 60 amino acid residues spanning from Arg170 to Ala229 of MetAP2 (REAAEAHRQVRKYVMSWIKPGMTMIEICEKLEDCSRKLIKENGLNAGLAFPTGCSLNNCA)
S100A4 [4]
  binding to S100A4 (SPR): occurred only in the presence of Ca^2+
[5]; [35S]MetAP2, GST/S100A4, 1 mmol/l CaCl2, peptide at 25-fold molar excess of MetAP2
  inhibition of S100A4-MetAP2 interaction (GST pull-down): efficiently blocked the interaction between S100A4 and MetAP2

## methionine aminopeptidase 2 [MetAP2]
[5]; [35S]MetAP2, GST/S100A4, 1 mmol/l CaCl2 or 1 mmol/l EDTA
  binding of MetAP2 to S100A4 (GST pull-down): S100A4 bound to MetAP2 in a Ca^2+-dependent manner
